Experimental findings from ChEMBL document CHEMBL4020740, “Antitubulin effects of aminobenzothiophene-substituted triethylated chromones” (Bioorg Med Chem Lett, 2017) are described below.

Series [1] is described as follows: Lipophilicity, log P of the compound. It is filed as physicochemical. The following applies: octanol/water.
Series [2] relates to MCF7. In words: Antiproliferative activity against human MCF7 cells by sulforhodamine B assay.
A short description of series [3]: Antiproliferative activity against human KBVIN cells by sulforhodamine B assay. It is filed as functional, cell-based.
The subject of series [4] is A549. In words: Antiproliferative activity against human A549 cells by sulforhodamine B assay.
Series [5] deals with MDA-MB-231. In words: Antiproliferative activity against human MDA-MB-231 cells by sulforhodamine B assay.
For series [6], the system named is KB. In words: Antiproliferative activity against human KB cells by sulforhodamine B assay.
The species named for series [7] is Homo sapiens. In words: Inhibition of tubulin polymerization in interphase stage of human MDA-MB-231 cells at 0.2 uM after 24 hrs by DAPI staining based confocal microscopic analysis.

Molecules are shown by their SMILES. The source made the active and inactive calls. The calls are words filed in the database; no cut-off is given here.

In series [1], `CCC1=C(O)c2c(oc(-c3csc4cc(N)ccc34)cc2=O)C(CC)(CC)C1=O` gave a logP of 2.11.

Consider `CCC1=C(OC)C(CC)(CC)C(O)=C(C(=O)/C=C/c2csc3ccc(NC(=O)OC(C)(C)C)cc23)C1=O`, for which the IC50 in series [2] is 7.01 µM; in series [3] it was 5.45 µM; in series [4], 5.1 µM; in series [5], 7.48 µM; in series [6], 5.88 µM.

Take `CC(=O)O[C@H]1C(=O)[C@@]2(C)[C@H]([C@H](OC(=O)c3ccccc3)[C@]3(O)C[C@H](OC(=O)[C@H](O)[C@@H](NC(=O)c4ccccc4)c4ccccc4)C(C)=C1C3(C)C)[C@]1(OC(C)=O)CO[C@@H]1C[C@@H]2O` [PACLITAXEL]: in series [3], inhibition was half-maximal at 2.04 µM (IC50).

Consider `COc1ccc(/C=C\c2cc(OC)c(OC)c(OC)c2)cc1O`, for which, in series [7], the inhibition result is “Active”.

On to `CCC1=C(OC)C(CC)(CC)c2oc(-c3csc4cc(NC(=O)OC(C)(C)C)ccc34)cc(=O)c2C1=O`, for which the IC50 worked out at 6.01 µM in series [2]; 5.02 µM in series [3]; 5.62 µM in series [4]; 6.52 µM in series [5]; 5.13 µM in series [6].

Regarding `CCC1=C(O)c2c(oc(-c3csc4cc(NC(=O)OC(C)(C)C)ccc34)cc2=O)C(CC)(CC)C1=O`, the IC50 in series [2], in series [3], in series [4], in series [5] and in series [6] was over 40 µM throughout.
